As a reminder, the pIC50 is −log10 of the IC50, conventionally taken in molar units. A higher pIC50 goes with a small IC50.

pIC50: −log10 of the molar value. Counter-ions that a name gives are not always drawn.

hNav1.7, sequence (Q15858 whole entry, looked up): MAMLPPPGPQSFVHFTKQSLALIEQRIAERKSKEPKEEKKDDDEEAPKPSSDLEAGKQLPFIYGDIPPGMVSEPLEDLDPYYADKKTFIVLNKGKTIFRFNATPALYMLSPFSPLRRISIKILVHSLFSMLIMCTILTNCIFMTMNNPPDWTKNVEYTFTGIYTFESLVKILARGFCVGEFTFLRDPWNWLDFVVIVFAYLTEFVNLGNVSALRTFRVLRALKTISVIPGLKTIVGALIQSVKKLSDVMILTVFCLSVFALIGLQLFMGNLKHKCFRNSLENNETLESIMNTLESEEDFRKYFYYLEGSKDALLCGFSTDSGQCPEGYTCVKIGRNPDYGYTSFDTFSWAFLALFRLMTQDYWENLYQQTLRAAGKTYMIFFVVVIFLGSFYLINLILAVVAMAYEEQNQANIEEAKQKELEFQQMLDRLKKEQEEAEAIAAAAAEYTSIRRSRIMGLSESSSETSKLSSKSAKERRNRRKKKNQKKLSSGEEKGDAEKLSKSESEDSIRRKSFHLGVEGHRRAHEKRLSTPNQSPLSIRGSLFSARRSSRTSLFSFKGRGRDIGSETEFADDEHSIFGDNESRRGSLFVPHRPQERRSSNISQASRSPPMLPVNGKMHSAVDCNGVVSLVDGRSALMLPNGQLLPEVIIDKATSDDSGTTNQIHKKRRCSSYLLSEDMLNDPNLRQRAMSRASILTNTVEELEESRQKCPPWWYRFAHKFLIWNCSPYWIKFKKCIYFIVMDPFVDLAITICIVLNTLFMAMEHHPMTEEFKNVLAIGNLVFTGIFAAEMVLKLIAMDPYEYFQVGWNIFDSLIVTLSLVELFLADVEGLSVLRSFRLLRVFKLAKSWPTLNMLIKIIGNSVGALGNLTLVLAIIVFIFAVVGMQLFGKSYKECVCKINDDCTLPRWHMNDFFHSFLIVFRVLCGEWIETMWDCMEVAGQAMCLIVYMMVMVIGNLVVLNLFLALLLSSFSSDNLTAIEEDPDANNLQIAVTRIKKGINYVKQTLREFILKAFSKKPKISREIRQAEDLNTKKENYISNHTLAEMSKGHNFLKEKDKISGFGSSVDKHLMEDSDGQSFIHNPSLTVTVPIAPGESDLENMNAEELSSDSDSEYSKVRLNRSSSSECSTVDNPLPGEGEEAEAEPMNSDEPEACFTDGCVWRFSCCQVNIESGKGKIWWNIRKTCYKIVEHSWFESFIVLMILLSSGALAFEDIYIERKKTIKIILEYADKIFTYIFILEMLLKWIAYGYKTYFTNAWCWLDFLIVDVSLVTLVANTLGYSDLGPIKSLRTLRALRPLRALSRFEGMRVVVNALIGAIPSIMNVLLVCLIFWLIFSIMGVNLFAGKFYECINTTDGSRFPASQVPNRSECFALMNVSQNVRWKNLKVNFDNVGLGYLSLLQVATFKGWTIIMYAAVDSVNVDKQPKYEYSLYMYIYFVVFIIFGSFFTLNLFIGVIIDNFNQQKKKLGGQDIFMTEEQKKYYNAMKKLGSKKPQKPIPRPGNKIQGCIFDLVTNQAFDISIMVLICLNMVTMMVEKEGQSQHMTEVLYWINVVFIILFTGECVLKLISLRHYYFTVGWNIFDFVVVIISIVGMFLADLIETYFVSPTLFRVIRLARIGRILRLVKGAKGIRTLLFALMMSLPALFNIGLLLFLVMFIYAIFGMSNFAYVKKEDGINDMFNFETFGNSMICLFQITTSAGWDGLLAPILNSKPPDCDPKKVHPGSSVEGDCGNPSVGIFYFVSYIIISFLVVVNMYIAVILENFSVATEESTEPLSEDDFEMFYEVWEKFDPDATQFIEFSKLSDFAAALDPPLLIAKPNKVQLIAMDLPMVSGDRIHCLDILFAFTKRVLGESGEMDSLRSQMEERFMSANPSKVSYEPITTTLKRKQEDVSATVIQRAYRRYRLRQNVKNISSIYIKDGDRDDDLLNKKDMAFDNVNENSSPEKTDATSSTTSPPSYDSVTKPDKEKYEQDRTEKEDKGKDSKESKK
hNav1.7, sequence (Q07699 whole entry partner, looked up): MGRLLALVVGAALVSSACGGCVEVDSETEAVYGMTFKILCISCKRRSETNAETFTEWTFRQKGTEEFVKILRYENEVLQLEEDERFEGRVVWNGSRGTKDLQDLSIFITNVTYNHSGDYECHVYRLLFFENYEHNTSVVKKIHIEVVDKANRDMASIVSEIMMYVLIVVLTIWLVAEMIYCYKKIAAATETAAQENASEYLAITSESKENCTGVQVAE

In the assay the target is hNav1.7 (Homo sapiens (Human), UniProt Q15858). Description: Tritiated compound binding to membranes from cells expressing hNav1.7 and the β1 subunit (Nav1.7 LBA EVO). The conditions noted are these: competitive binding vs [3H]compound, membranes with hNav1.7 and β1 subunit. As for the experimental part:
Example 64a. Tritiated Compound Binding to Membranes Isolated from Cells that Heterologously Express hNav1.7 and the β1 Subunit
Preparation of membranes containing recombinantly expressed sodium channels: Frozen recombinant cell pellets are thawed on ice and diluted to 4 times the cell pellet weight with ice cold 50 mM Tris HCl, pH 7.4 buffer. The cell suspensions are homogenized on ice using a motorized glass dounce homogeniser. Homogenates are further diluted 8.4 times with ice cold 50 mM Tris HCl, pH 7.4 buffer and then centrifuged at 200×g at 4° C. for 15 minutes. The supernatants are collected and centrifuged at 10000×g at 4° C. for 50 min. The pellets are then re-suspended in 100 mM NaCl, 20 mM Tris HCl, pH 7.4 buffer containing 1% v/v protease inhibitors (Calbiochem) and re-homogenized on ice. The homogenized membranes are then processed through a syringe equipped with a 26 gauge needle. Protein concentrations arer determined by Bradford Assay and the membranes are stored at −80° C.
Radioligand Binding Studies: Saturation experiments. A competitive NaV1.7 inhibitor having a methyl group is tritiated. Three tritiums are incorporated in place of methyl hydrogens to generate [^3H]compound. Binding of this radioligand is performed in 5 mL borosilicate glass test tubes at room temperature. Binding is initiated by adding membranes to increasing concentrations of [^3H]compound in 100 mM NaCl, 20 mM Tris HCl, pH 7.4 buffer containing 0.01% w/v bovine serum albumin (BSA) for 18 h. Non-specific binding is determined in the presence of 1 μM unlabeled compound. After 18 h, the reactants are filtered through GF/C glass fiber filters presoaked in 0.5% w/v polyethylene imine. Filters are washed with 15 mL ice cold 100 mM NaCl, 20 mM Tris HCl, pH7.4 buffer containing 0.25% BSA to separate bound from free ligand. [^3H]compound bound to filters is quantified by liquid scintillation counting.
Competitive binding experiments: Binding reactions are performed in 96-well polypropylene plates at room temperature for 18 h. In 360 μL, membranes are incubated with 100 pM [^3H]compound and increasing concentrations of Test Compound. Non-specific binding is defined in the presence of 1 μM unlabeled compound. Reactions are transferred and filtered through 96-well glass fiber/C filter plates presoaked with 0.5% polyethylene imine. The filtered reactions are washed 5 times with 200 μL ice cold buffer containing 0.25% BSA. Bound radioactivity is determined by liquid scintillation counting.
Data Analysis: For saturation experiments, non-specific binding is subtracted from total binding to provide specific binding and these values are recalculated in terms of pmol ligand bound per mg protein. Saturation curves are constructed and dissociation constants are calculated using the single site ligand binding model: Beq=(Bmax*X)/(X+Kd), where Beq is the amount of ligand bound at equilibrium, Bmax is the maximum receptor density, Kd is the dissociation constant for the ligand, and X is the free ligand concentration. For competition studies percent inhibition is determined and IC50 values are calculated using a 4 parameter logistic model (% inhibition=(A+((B−A)/(1+((x/C)^D)))) using XLfit, where A and B are the maximal and minimum inhibition respectively, C is the IC50 concentration and D is the (Hill) slope.
Example 64b. Tritiated Compound Binding to Membranes Isolated from Cells that Heterologous Express hNav1.7 and the β1 Subunit
Preparation of membranes containing recombinantly expressed sodium channels: Following the procedure described in 31a, and making modifications as required to: centrifuge supernatants at 100000×g instead of 10000×g; re-suspend pellets in a buffer containing 0.01% BSA in addition to 100 mM NaCl, 20 mM Tris HCl, pH 7.4 buffer, and 1% v/v […]; and storing membranes at −80° C. in single use aliquots instead of pooled. […]
The compound `Cc1nc(O[C@H]2CC[C@H](c3ccc(Cl)c(C(F)(F)F)c3)C[C@@H]2N(C)C)ccc1S(=O)(=O)Nc1ccncn1` [Example 36, 6-(((1S,2S,4S)-4-(4-chloro-3-(trifluoromethyl)phenyl)-2-(dimethylamino)cyclohexyl)oxy)-2-methyl-N-(pyrimidin-4-yl)pyridine-3-sulfonamide] showed a pIC50 of 8.89.
As for `Cc1nc(O[C@H]2CC[C@H](c3cc(C(F)(F)F)ccc3Cl)C[C@@H]2N(C)C)ccc1S(=O)(=O)Nc1ccncn1` [Example 38, 6-(((1S,2S,4S)-4-(2-chloro-5-(trifluoromethyl)phenyl)-2-(dimethylamino)cyclohexyl)oxy)-2-methyl-N-(pyrimidin-4-yl)pyridine-3-sulfonamide], the figure is 8.75; as for `Cc1nc(O[C@H]2CC[C@H](c3cc(Cl)ccc3Cl)C[C@@H]2N(C)C)ccc1S(=O)(=O)Nc1ccncn1` [Example 39, 6-(((1S,2S,4S)-4-(2,5-dichlorophenyl)-2-(dimethylamino)cyclohexyl)oxy)-2-methyl-N-(pyrimidin-4-yl)pyridine-3-sulfonamide formate], 9.03.
Regarding `O=S(=O)(Nc1ccncn1)c1cnc(O[C@H]2CC[C@H](c3cccc(C(F)(F)F)n3)C[C@@H]2N2CCCC2)c(Cl)c1` [Example 40, 5-chloro-N-(pyrimidin-4-yl)-6-(((1S,2S,4S)-2-(pyrrolidin-1-yl)-4-(6-(trifluoromethyl)pyridin-2-yl)cyclohexyl)oxy)pyridine-3-sulfonamide], the pIC50 is 9.02.
Turning to `Cc1nc(O[C@H]2CC[C@H](c3cc(F)cc(C(F)(F)F)c3)C[C@@H]2N(C)C)ccc1S(=O)(=O)Nc1ccncn1` [Example 42, 6-(((1S,2S,4S)-2-(Dimethylamino)-4-(3-fluoro-5-(trifluoromethyl)phenyl)cyclohexyl)oxy)-2-methyl-N-(pyrimidin-4-yl)pyridine-3-sulfonamide], the pIC50 was 9.14.
As for `CN(C)[C@H]1C[C@@H](c2cc(C(F)(F)F)ccc2F)CC[C@@H]1Oc1ccc(S(=O)(=O)Nc2ccncn2)c(Cl)n1` [Example 44, 2-Chloro-6-(((1S,2S,4S)-2-(dimethylamino)-4-(2-fluoro-5-(trifluoromethyl)phenyl)-cyclohexyl)oxy)-N-(pyrimidin-4-yl)pyridine-3-sulfonamide formate], the figure is 9.14.
As for `Cc1nc(O[C@H]2CC[C@H](c3ccc(F)c(C(F)(F)F)c3)C[C@@H]2N(C)C)ccc1S(=O)(=O)Nc1ccncn1` [Example 45, 6-(((1S,2S,4S)-2-(Dimethylamino)-4-(4-fluoro-3-(trifluoromethyl)phenyl)cyclohexyl)oxy)-2-methyl-N-(pyrimidin-4-yl)pyridine-3-sulfonamide formate], the figure is 9.04; as for `CCN(CC)[C@H]1C[C@@H](c2cccc(C(F)(F)F)c2)CC[C@@H]1Oc1ccc(S(=O)(=O)Nc2ccncn2)c(C)n1` [Example 47, 6-(((1S,2S,4S)-2-(Diethylamino)-4-(3-(trifluoromethyl)phenyl)cyclohexyl)oxy)-2-methyl-N-(pyrimidin-4-yl)pyridine-3-sulfonamide], 9.04.
As for `CCN(C)[C@H]1C[C@@H](c2cccc(C(F)(F)F)c2)CC[C@@H]1Oc1ccc(S(=O)(=O)Nc2ccncn2)c(C)n1` [Example 48, 6-(((1S,2S,4S)-2-(Ethyl(methyl)amino)-4-(3-(trifluoromethyl)phenyl)cyclohexyl)oxy)-2-methyl-N-(pyrimidin-4-yl)pyridine-3-sulfonamide], the figure is 9.12; as for `Cc1nc(O[C@H]2CC[C@H](c3cc(Cl)cc(C(F)(F)F)c3)C[C@@H]2N(C)C)ccc1S(=O)(=O)Nc1ccncn1` [Example 49, 6-(((1S,2S,4S)-4-(3-chloro-5-(trifluoromethyl)phenyl)-2-(dimethylamino)cyclohexyl)oxy)-2-methyl-N-(pyrimidin-4-yl)pyridine-3-sulfonamide], 8.92.
As for `Cc1nc(O[C@H]2CC[C@H](c3cccc(OC(F)F)c3)C[C@@H]2N(C)C)ccc1S(=O)(=O)Nc1ccncn1` [Example 52, 6-(((1S,2S,4S)-4-(3-(difluoromethoxy)phenyl)-2-(dimethylamino)cyclohexyl)oxy)-2-methyl-N-(pyrimidin-4-yl)pyridine-3-sulfonamide], the pIC50 is 9.21.
As for `Cc1nc(O[C@H]2CC[C@H](c3cccc(C(F)(F)F)c3)C[C@@H]2N(C)C)c(F)cc1S(=O)(=O)Nc1ccncn1` [Example 53, 6-(((1S,2S,4S)-2-(Dimethylamino)-4-(3-(trifluoromethyl)phenyl)cyclohexyl)oxy)-5-fluoro-2-methyl-N-(pyrimidin-4-yl)pyridine-3-sulfonamide formate], the figure is 9.21; as for `Cc1ccc(C(F)(F)F)cc1[C@H]1CC[C@H](Oc2ccc(S(=O)(=O)Nc3ccncn3)c(C)n2)[C@@H](N(C)C)C1` [Example 54, 6-(((1S,2S,4S)-2-(dimethylamino)-4-(2-methyl-5-(trifluoromethyl)phenyl)cyclohexyl)oxy)-2-methyl-N-(pyrimidin-4-yl)pyridine-3-sulfonamide], 9.16.
`Cc1nc(O[C@H]2CC[C@H](c3cccc(C(F)(F)F)c3)C[C@@H]2N2CCOCC2)ccc1S(=O)(=O)Nc1ccncn1` [Example 55, 2-Methyl-6-(((1S,2S,4S)-2-morpholino-4-(3-(trifluoromethyl)phenyl)cyclohexyl)oxy)-N-(pyrimidin-4-yl)pyridine-3-sulfonamide] gave a pIC50 of 8.76.
Compound `Cc1ccc([C@H]2CC[C@H](Oc3ccc(S(=O)(=O)Nc4ccncn4)c(C)n3)[C@@H](N(C)C)C2)cc1C(F)(F)F` [Example 56, 6-(((1S,2S,4S)-2-(dimethylamino)-4-(4-methyl-3-(trifluoromethyl)phenyl)cyclohexyl)oxy)-2-methyl-N-(pyrimidin-4-yl)pyridine-3-sulfonamide formate] showed a pIC50 of 8.88.
As for `Cc1cc([C@H]2CC[C@H](Oc3ccc(S(=O)(=O)Nc4ccncn4)c(C)n3)[C@@H](N(C)C)C2)cc(C(F)(F)F)c1` [Example 58, 6-(((1S,2S,4S)-2-(dimethylamino)-4-(3-methyl-5-(trifluoromethyl)phenyl)cyclohexyl)oxy)-2-methyl-N-(pyrimidin-4-yl)pyridine-3-sulfonamide], the figure is 8.54; as for `Cc1nc(O[C@H]2CC[C@H](c3cccc(CC(F)(F)F)c3)C[C@@H]2N(C)C)ccc1S(=O)(=O)Nc1ccncn1` [Example 59, 6-(((1S,2S,4S)-2-(dimethylamino)-4-(3-(2,2,2-trifluoroethyl)phenyl)cyclohexyl)oxy)-2-methyl-N-(pyrimidin-4-yl)pyridine-3-sulfonamide], 8.80.
In the case of `Cc1nc(O[C@H]2CC[C@H](c3cccc(C(F)(F)F)c3C)C[C@@H]2N(C)C)ccc1S(=O)(=O)Nc1ccncn1` [Example 60, 6-(((1S,2S,4S)-2-(dimethylamino)-4-(2-methyl-3-(trifluoromethyl)phenyl)cyclohexyl)oxy)-2-methyl-N-(pyrimidin-4-yl)pyridine-3-sulfonamide], the pIC50 is 8.45.
As for `COc1cc(S(=O)(=O)Nc2ccncn2)cnc1O[C@H]1CC[C@H](c2cccc(C(F)(F)F)c2)C[C@@H]1N(C)C` [Example 61, 6-(((1S,2S,4S)-2-(Dimethylamino)-4-(3-(trifluoromethyl)phenyl)cyclohexyl)oxy)-5-methoxy-N-(pyrimidin-4-yl)pyridine-3-sulfonamide formate], the figure is 8.72.
The compound `Cc1nc(O[C@H]2CC[C@H](c3ccc(Cl)c(C(F)(F)F)n3)C[C@@H]2N(C)C)ccc1S(=O)(=O)Nc1ccncn1` [Example 62, 6-(((1S,2S,4S)-4-(5-chloro-6-(trifluoromethyl)pyridin-2-yl)-2-(dimethylamino)-cyclohexyl)oxy)-2-methyl-N-(pyrimidin-4-yl)pyridine-3-sulfonamide] gave a negative-log IC50 (pIC50) of 8.72.
